Results as given in patent US5597801A, “Biocidal proteins” (priority 1991, dated 1997).
Where no end group is shown, it is not given here.

Assays:
[1] = test system: Bacillus megaterium ATCC 13632; test: Antibacterial activity assay (microspectrophotometry); type: cell-based; details: B megaterium; 24 hours of incubation at 28° C.
[2] = test system: Escherichia coli strain HB101; test: as above; type: cell-based; details: E coli; for IC50 (antibacterial activity): Table 4, highest test concentration 500 μg/ml; for IC50 (activity on bacteria): Table 5
Phytophthora infestans = type: cell-based
[3] = test system: Erwinia carotovora strain 3912; test: Antibacterial activity assay (microspectrophotometry); type: cell-based; details: E carotovora; highest test concentration 500 μg/ml
Sarcina lutea ATCC 9342 = test: as above; type: cell-based; details: S lutea; 24 hours of incubation at 28° C.
[4] = Chitin-binding activity (chitin micro-column, SDS-PAGE of fractions); details: 50 μg on chitin micro-column; washed at pH 7, desorbed with 100 mM acetic acid (pH 2.8)
Fusarium culmorum spores [5] = type: cell-based; details: F culmorum spores; protein 2-4 fold below the IC50 value; light microscope
From the text: During the course of screening many different plant species it has become evident that the protein class of the invention is fairly common in plant seeds. […] This is particularly evident when using Fusarium culmorum. The nature of the inhibition may also be characterized by the fact that it is very sensitive to the concentration of cations used in the assay.
This is readily visualised when Fusarium culmorum spores are used in the assay and at concentrations of the proteins which are 2-4 fold below the IC50 value.

B cinerea = test: Effect of ions on antifungal activity (synthetic growth medium); type: cell-based, Botrytis cinerea; details: for increase of IC50 values by CaCl2 at 1 mM: reference medium + 1 mM CaCl2; for drop in specific activity at 5 mM CaCl2: reference medium + 5 mM CaCl2; for effect of KCl at 10 mM on the dose-response curves: reference medium + 10 mM KCl; for increase of IC50 values by KCl at 50 mM: reference medium + 50 mM KCl; for IC50 in reference medium: synthetic growth medium, 2.5 mM monovalent and 0.1 mM divalent cations
[6] = test system: Cercospora beticola strain K897; type: cell-based
[7] = test system: Botrytis cinerea MUCL 30158; type: cell-based
[8] = test system: Alternaria brassicola MUCL 20297; type: cell-based
[9] = test system: Verticillium dahliae MUCL 19210; type: cell-based
[10] = test system: Colletotrichum lindemuthianum MUCL 9577; type: cell-based
[11] = test system: Ascochyta pisi MUCL 30164; type: cell-based
plant pathogenic fungi = type: cell-based
[12] = test system: Cladosporium sphaerospermum strain KO791; test: Antifungal activity assay (growth inhibition, microspectrophotometry); type: cell-based; details: C sphaerospermum; medium B (medium A + 1 mM CaCl2, 50 mM KCl); 48 h
[13] = test system: Alternaria longipes strain CBS 620.83; test: as above; type: cell-based; details: A longipes; medium B (medium A + 1 mM CaCl2, 50 mM KCl); 48 h
Fusarium culmorum spores [14] = type: physicochemical; details: for antifungal activity after heat treatment at up to 80° C.: 10 minutes, F culmorum assay; for antifungal activity after reduction of disulphide bonds: reduction by DTE / dithiothreitol
Experimental: Tests for antifungal activity were performed with 20 μl samples diluted five-fold with growth medium containing Fusarium culmorum spores, according to the assay method given in Example 1. Untreated control samples consisted of the test proteins at 500 μg/ml in 10 mM sodium phosphat buffer (pH 7). For digestions, different proteases were added at 100 μg/ml and incubated at 37° C. for 16 hours. Heat stability tests were performed by heating aliquots of the test proteins for 10 minutes at different temperatures up to 100° C. pH stability was tested by incubation of test proteins for 1 hour in either 20 mM glycine-HCl (pH 2) or glycine-NaOH (pH 11) and subsequent dialysis for 16 hours against 10 mM sodium phosphate buffer (pH 7) using benzoylated cellulose tubing. Reduction of dishulphide bridges was done by addition of DTE at 30 mM and Tris-HCl (pH 8.6) at 300 mM. The reagents were removed by reversed-phase chromatography. For digestions, different proteases were added at 200 μg/ml and incubated at 37° C. for 3 hours.

Substance	IC50 (antibacterial activity) [2]	IC50 (antibacterial activity) [3]	IC50 (antibacterial activity) (Sarcina lutea ATCC 9342)	affinity toward chitin [4]	morphological change of partially inhibited spores (Fusarium culmorum spores [5])	increase of IC50 values by CaCl2 at 1 mM (B cinerea)	drop in specific activity at 5 mM CaCl2 (B cinerea)	effect of KCl at 10 mM on the dose-response curves (B cinerea)	increase of IC50 values by KCl at 50 mM (B cinerea)	IC50 in reference medium (B cinerea)	IC50 (activity on bacteria) [2]	antifungal activity in high salt (medium B) (plant pathogenic fungi)	antifungal activity after heat treatment at up to 80° C. (Fusarium culmorum spores [14])	antifungal activity after reduction of disulphide bonds (Fusarium culmorum spores [14])	further results
Ac-AMP1: antimicrobial protein from Amaranthus caudatus seeds, 29 residues, dimer of 3 kDa subunits (SEQ ID NO:5) (VGECVRGRCPSGMCCSQFGYCGKGPKYCG; cysteine pairing not given here; also: dimer of subunits)	no inhibition	no inhibition	250 µg/mL	exhibit affinity toward chitin	severe branching of the emerging hyphal tips	five to six-fold	more than 50 fold	did not significantly affect	about three-fold	2.2 µg/mL	–	–	–	–	IC50 (antibacterial activity) [1]: 40 µg/mL; IC50 (concentration required for 50% growth inhibition) (Phytophthora infestans): 12
Ac-AMP2: antimicrobial protein from Amaranthus caudatus seeds, 30 residues, Ac-AMP1 plus carboxyl-terminal arginine (SEQ ID NO:6) (VGECVRGRCPSGMCCSQFGYCGKGPKYCGR)	no inhibition	no inhibition	40 µg/mL	exhibit affinity toward chitin	–	five to six-fold	more than 50 fold	did not significantly affect	about three-fold	1.6 µg/mL	–	–	–	–	IC50 (concentration required for 50% growth inhibition) [6]: 0.8; IC50 (concentration required for 50% growth inhibition) [7]: 8; IC50 (concentration required for 50% growth inhibition) [8]: 4; IC50 (concentration required for 50% growth inhibition) [9]: 5; IC50 (concentration required for 50% growth inhibition) [10]: 8; IC50 (concentration required for 50% growth inhibition) [11]: 8
Bm-AMP1: antimicrobial protein purified from seeds of Briza maxima; may be a mixture of peptides varying at positions 9 and 23 (SEQ ID NO:16)	–	–	–	–	–	–	–	–	–	–	> 800 µg/mL	essentially abolished	resistant	completely abolished	number of fungi with IC50 value below 10 μg/ml (plant pathogenic fungi): six of the eight; IC50 Medium B [12]: > 500 µg/mL; IC50 Medium B [13]: > 500 µg/mL
Ca-AMP1: antimicrobial protein purified from seeds of Capsicum annuum (SEQ ID NO:15) (QEQCGNQAGGRACANRLCCSQYGYCGSTRAYCGVGCQSNCGR)	–	–	–	exhibits affinity to chitin	severe branching of the emerging hyphal tips	–	–	–	–	–	> 800 µg/mL	essentially abolished	resistant	completely abolished	number of fungi with IC50 value below 50 μg/ml (plant pathogenic fungi): 12 of the 18; antifungal activity after treatment with chymotrypsin (Fusarium culmorum spores [14]; chymotrypsin): no affect on activity; reduction of antifungal activity after treatment with pronase E (Fusarium culmorum spores [14]; pronase E): at least 10 fold; reduction of antifungal activity after treatment with proteinase K (Fusarium culmorum spores [14]; proteinase K): at least 10 fold; reduction of antifungal activity after treatment with trypsin (Fusarium culmorum spores [14]; trypsin): 2 fold
